Laboratory results: patent US12291519B2, “2-hydroxycycloalkane-1-carbamoyl” (Idorsia Pharmaceuticals Ltd, priority 2019, dated 2025)

Experiments:
human Gal-1 (hGal-1) = assay: Competitive binding assay: biotinylated hGal-1 binding to microplate-adsorbed asialofetuin (ASF); conditions: Activity on hGal-1; binding of biotinylated hGal-1 to ASF-coated plates; mean values
Outline: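 Inhibition measured as loss of hGal-1 (biotinylated, 300–1000 ng/mL, wild type or Cys→Ser mutant) binding to adsorbed asialofetuin over 3 h at 4 °C. Bound lectin detected with streptavidin-HRP and ABTS (410 nm, 30–45 min); IC50 values averaged across repeat measurements.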

human Gal-3 (hGal-3) = human Gal-3 (hGal-3) (Homo sapiens (Human), UniProt P17931); assay: Competitive binding assay: biotinylated hGal-3 binding to microplate-adsorbed asialofetuin (ASF); conditions: Activity on hGal-3; binding of biotinylated hGal-3 to ASF-coated plates; mean values
Outline: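 Serially diluted compounds competed with biotinylated human Gal-3 for binding to plate-adsorbed asialofetuin over 3 h at 4 °C. Bound Gal-3 was detected with streptavidin-peroxidase (80 ng/mL, 1 h, 4 °C) and ABTS substrate. IC50 values are means of several measurements.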

Sequence of human Gal-1 (hGal-1) (P09382 2-135 limits assumed): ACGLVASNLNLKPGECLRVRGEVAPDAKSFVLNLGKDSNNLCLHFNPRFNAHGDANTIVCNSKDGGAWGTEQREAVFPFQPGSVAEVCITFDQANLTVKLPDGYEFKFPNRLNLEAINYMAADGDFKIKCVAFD
Sequence of human Gal-3 (hGal-3) (P17931 whole entry): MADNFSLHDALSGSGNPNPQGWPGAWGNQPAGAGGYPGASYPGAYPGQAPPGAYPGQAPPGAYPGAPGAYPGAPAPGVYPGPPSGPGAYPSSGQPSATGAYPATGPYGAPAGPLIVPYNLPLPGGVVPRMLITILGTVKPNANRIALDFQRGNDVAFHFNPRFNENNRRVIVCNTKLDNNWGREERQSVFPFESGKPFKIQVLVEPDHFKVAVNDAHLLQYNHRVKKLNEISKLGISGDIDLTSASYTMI

Compound	IC50 (human Gal-1 (hGal-1)) [nM]	IC50 (human Gal-3 (hGal-3)) [nM]
CCn1nccc1CN(C(=O)[C@@H]1O[C@H](CO)[C@H](O)[C@H](n2cc(-c3cc(F)c(F)c(F)c3)nn2)[C@H]1OC)[C@H]1CCCC[C@@H]1O [Example 44, (2R,3R,4S,5R,6R)-N-((1-ethyl-1H-pyrazol-5-yl)methyl)-5-hydroxy-N-((1S,2S)-2-hydroxycyclohexyl)-6-(hydroxymethyl)-3-methoxy-4-(4-(3,4,5-trifluorophenyl)-1H-1,2,3-triazol-1-yl)tetrahydro-2H-pyran-2-carboxamide]	974	179
CO[C@@H]1[C@@H](n2cc(-c3cc(F)c(F)c(F)c3)nn2)[C@@H](O)[C@@H](CO)O[C@H]1C(=O)N(Cc1ccnn1C(C)C)[C@H]1CCCC[C@@H]1O [Example 45, (2R,3R,4S,5R,6R)-5-hydroxy-N-((1S,2S)-2-hydroxycyclohexyl)-6-(hydroxymethyl)-N-((1-isopropyl-1H-pyrazol-5-yl)methyl)-3-methoxy-4-(4-(3,4,5-trifluorophenyl)-1H-1,2,3-triazol-1-yl)tetrahydro-2H-pyran-2-carboxamide]	1430	421
CO[C@@H]1[C@@H](n2cc(-c3cc(F)c(F)c(F)c3)nn2)[C@@H](O)[C@@H](CO)O[C@H]1C(=O)N(Cc1ccnn1CC1CC1)[C@H]1CCCC[C@@H]1O [Example 46, (2R,3R,4S,5R,6R)-N-((1-(cyclopropylmethyl)-1H-pyrazol-5-yl)methyl)-5-hydroxy-N-((1S,2S)-2-hydroxycyclohexyl)-6-(hydroxymethyl)-3-methoxy-4-(4-(3,4,5-trifluorophenyl)-1H-1,2,3-triazol-1-yl)tetrahydro-2H-pyran-2-carboxamide]	497	160
CO[C@@H]1[C@@H](n2cc(-c3cc(F)c(F)c(F)c3)nn2)[C@@H](O)[C@@H](CO)O[C@H]1C(=O)N(Cc1cc(C)nn1C)[C@H]1CCCC[C@@H]1O [Example 47, (2R,3R,4S,5R,6R)-N-((1,3-dimethyl-1H-pyrazol-5-yl)methyl)-5-hydroxy-N-((1S,2S)-2-hydroxycyclohexyl)-6-(hydroxymethyl)-3-methoxy-4-(4-(3,4,5-trifluorophenyl)-1H-1,2,3-triazol-1-yl)tetrahydro-2H-pyran-2-carboxamide]	1040	151
CO[C@@H]1[C@@H](n2cc(-c3cc(F)c(F)c(F)c3)nn2)[C@@H](O)[C@@H](CO)O[C@H]1C(=O)N(Cc1cc2ccccc2n1C)[C@H]1CCCC[C@@H]1O [Example 48, (2R,3R,4S,5R,6R)-5-hydroxy-N-((1S,2S)-2-hydroxycyclohexyl)-6-(hydroxymethyl)-3-methoxy-N-((1-methyl-1H-indol-2-yl)methyl)-4-(4-(3,4,5-trifluorophenyl)-1H-1,2,3-triazol-1-yl)tetrahydro-2H-pyran-2-carboxamide]	2240	344
CC(=O)O[C@@H]1[C@@H](n2cc(-c3cc(F)cc(F)c3)nn2)[C@@H](O)[C@@H](CO)O[C@H]1C(=O)N(Cc1ccnn1C)[C@H]1CCCC[C@@H]1O [Example 49, (2R,3R,4S,5R,6R)-4-(4-(3,5-difluorophenyl)-1H-1,2,3-triazol-1-yl)-5-hydroxy-2-(((1S,2S)-2-hydroxycyclohexyl)((1-methyl-1H-pyrazol-5-yl)methyl)carbamoyl)-6-(hydroxymethyl)tetrahydro-2H-pyran-3-yl acetate]	1940	129
CC(=O)O[C@@H]1[C@@H](n2cc(-c3cc(F)c(Cl)c(F)c3)nn2)[C@@H](O)[C@@H](CO)O[C@H]1C(=O)N(Cc1ccnn1C)[C@H]1CCCC[C@@H]1O [Example 50, (2R,3R,4S,5R,6R)-4-(4-(4-chloro-3,5-difluorophenyl)-1H-1,2,3-triazol-1-yl)-5-hydroxy-2-(((1S,2S)-2-hydroxycyclohexyl)((1-methyl-1H-pyrazol-5-yl)methyl)carbamoyl)-6-(hydroxymethyl)tetrahydro-2H-pyran-3-yl acetate]	7580	53
CC(=O)O[C@@H]1[C@@H](n2cc(-c3cc(F)c(C)c(F)c3)nn2)[C@@H](O)[C@@H](CO)O[C@H]1C(=O)N(Cc1ccnn1C)[C@H]1CCCC[C@@H]1O [Example 51, (2R,3R,4S,5R,6R)-4-(4-(3,5-difluoro-4-methylphenyl)-1H-1,2,3-triazol-1-yl)-5-hydroxy-2-(((1S,2S)-2-hydroxycyclohexyl)((1-methyl-1H-pyrazol-5-yl)methyl)carbamoyl)-6-(hydroxymethyl)tetrahydro-2H-pyran-3-yl acetate]	11200	58
CC(=O)O[C@@H]1[C@@H](n2cc(-c3cccc(F)c3)nn2)[C@@H](O)[C@@H](CO)O[C@H]1C(=O)N(Cc1ccnn1C)[C@H]1CCCC[C@@H]1O [Example 52, (2R,3R,4S,5R,6R)-4-(4-(3-fluorophenyl)-1H-1,2,3-triazol-1-yl)-5-hydroxy-2-(((1S,2S)-2-hydroxycyclohexyl)((1-methyl-1H-pyrazol-5-yl)methyl)carbamoyl)-6-(hydroxymethyl)tetrahydro-2H-pyran-3-yl acetate]	1600	191
CO[C@@H]1[C@@H](n2cc(-c3cc(F)c(F)c(F)c3)nn2)[C@@H](O)[C@@H](CO)O[C@H]1C(=O)N(Cc1cccc(Cl)c1)[C@H]1CCCC[C@@H]1O [Example 53, (2R,3R,4S,5R,6R)-N-(3-chlorobenzyl)-5-hydroxy-N-((1S,2S)-2-hydroxycyclohexyl)-6-(hydroxymethyl)-3-methoxy-4-(4-(3,4,5-trifluorophenyl)-1H-1,2,3-triazol-1-yl)tetrahydro-2H-pyran-2-carboxamide]	10800	868
CO[C@@H]1[C@@H](n2cc(-c3cc(F)c(F)c(F)c3)nn2)[C@@H](O)[C@@H](CO)O[C@H]1C(=O)N(Cc1cccc(Cl)c1)[C@H]1CCCC[C@@H]1O [Example 54]	2660	20
CC(=O)O[C@@H]1[C@@H](n2cc(-c3cc(F)c(F)c(F)c3)nn2)[C@@H](O)[C@@H](CO)O[C@H]1C(=O)N(Cc1ccccc1C(F)(F)F)[C@H]1CCCC[C@@H]1O [Example 55, (2R,3R,4S,5R,6R)-5-hydroxy-2-(((1S,2S)-2-hydroxycyclohexyl)(2-(trifluoromethyl)benzyl)carbamoyl)-6-(hydroxymethyl)-4-(4-(3,4,5-trifluorophenyl)-1H-1,2,3-triazol-1-yl)tetrahydro-2H-pyran-3-yl acetate]	828	31
CO[C@@H]1[C@@H](n2cc(-c3cc(F)c(F)c(F)c3)nn2)[C@@H](O)[C@@H](CO)O[C@H]1C(=O)N(c1ccc(F)c(F)c1)[C@H]1CCCC[C@@H]1O [Example 56]	417	42
CO[C@@H]1[C@@H](n2cc(-c3cc(F)c(F)c(F)c3)nn2)[C@@H](O)[C@@H](CO)O[C@H]1C(=O)N(c1cccc(Cl)c1)[C@H]1CCCC[C@@H]1O [Example 58]	729	21
CO[C@@H]1[C@@H](n2cc(-c3cc(F)c(F)c(F)c3)nn2)[C@@H](O)[C@@H](CO)O[C@H]1C(=O)N(c1cc(Cl)cc(Cl)c1)[C@H]1CCCC[C@@H]1O [Example 60]	665	16
CC(=O)O[C@@H]1[C@@H](n2cc(-c3cccc(F)c3)nn2)[C@@H](O)[C@@H](CO)O[C@H]1C(=O)N(Cc1ccccc1C(F)(F)F)[C@H]1CCCC[C@@H]1O [Example 62, (2R,3R,4S,5R,6R)-4-(4-(3-fluorophenyl)-1H-1,2,3-triazol-1-yl)-5-hydroxy-2-(((1S,2S)-2-hydroxycyclohexyl)(2-(trifluoromethyl)benzyl)carbamoyl)-6-(hydroxymethyl)tetrahydro-2H-pyran-3-yl acetate]	939	141
CC(=O)O[C@@H]1[C@@H](n2cc(-c3cc(F)cc(F)c3)nn2)[C@@H](O)[C@@H](CO)O[C@H]1C(=O)N(Cc1ccccc1C(F)(F)F)[C@H]1CCCC[C@@H]1O [Example 63, (2R,3R,4S,5R,6R)-4-(4-(3,5-difluorophenyl)-1H-1,2,3-triazol-1-yl)-5-hydroxy-2-(((1S,2S)-2-hydroxycyclohexyl)(2-(trifluoromethyl)benzyl)carbamoyl)-6-(hydroxymethyl)tetrahydro-2H-pyran-3-yl acetate]	1020	138
COc1cnc2ccc(F)c(CN(C(=O)[C@@H]3O[C@H](CO)[C@H](O)[C@H](n4cc(-c5cc(F)c(F)c(F)c5)nn4)[C@H]3OC)[C@H]3CCCC[C@@H]3O)c2n1 [Example 64, (2R,3R,4S,5R,6R)-N-((6-fluoro-3-methoxyquinoxalin-5-yl)methyl)-5-hydroxy-N-((1S,2S)-2-hydroxycyclohexyl)-6-(hydroxymethyl)-3-methoxy-4-(4-(3,4,5-trifluorophenyl)-1H-1,2,3-triazol-1-yl)tetrahydro-2H-pyran-2-carboxamide]	980	123
CO[C@@H]1[C@@H](n2cc(-c3cc(F)c(F)c(F)c3)nn2)[C@@H](O)[C@@H](CO)O[C@H]1C(=O)N(Cc1nc2ccccc2cc1Cl)[C@H]1CCCC[C@@H]1O [Example 65, (2R,3R,4S,5R,6R)-N-((3-chloroquinolin-2-yl)methyl)-5-hydroxy-N-((1S,2S)-2-hydroxycyclohexyl)-6-(hydroxymethyl)-3-methoxy-4-(4-(3,4,5-trifluorophenyl)-1H-1,2,3-triazol-1-yl)tetrahydro-2H-pyran-2-carboxamide]	6770	196
O=C([C@@H]1O[C@H](CO)[C@H](O)[C@H](n2cc(-c3cc(F)c(F)c(Cl)c3)nn2)[C@H]1O)N(Cc1ccccc1C(F)(F)F)[C@H]1CCCC[C@@H]1O [Example 66, (2R,3R,4S,5R,6R)-4-(4-(3-chloro-4,5-difluorophenyl)-1H-1,2,3-triazol-1-yl)-3,5-dihydroxy-N-((1S,2S)-2-hydroxycyclohexyl)-6-(hydroxymethyl)-N-(2-(trifluoromethyl)benzyl)tetrahydro-2H-pyran-2-carboxamide]	534	95
